In patent publication US6461845B1, “Recombinant hepatitis C virus RNA replicase” (Emory University, priority 1995, dated 2002):

Tests used:
[1] = RNA synthesis by r-HCV-RDRP in vitro, Mg++ dependence; type: biochemical
Method: Both reactions were >90% primer-dependent under the described reaction conditions.
Assay conditions for r-HCV-RDRP activity: The preferred conditions for assaying RDRP activity are described. The alternative conditions are operative, and designated as alternatives, in parentheses. Incubations were carried out 20 or 50 μl in final volumes that contain: 20-50 mM HEPES-pH 8.0 (alternative is 20 mM Tris-HCl;pH 7.5); 1.5-5 mM MnCl2; 100 mM ammonium acetate; 1-4 mM dithiothreitol (DDT), 500 μM each ATP, CTP, and GTP (alternative: 500 μM GTP and 250 μM each ATP and CTP); 10 μM UTP; 1-20 μCi of [α-^33P]UTP (alternative is to use [α-^32P]UTP or [^3H]UTP), 10-20 U of RNasin; and rHCV-RDRP protein. Templates: 500-1000 ng of a preferred heteropolymeric template (e.g., either a 98 nt 3′-end of HCV genomic RNA or HCV RNA that included both the 5′ and 3′ ends of genomic or negative stranded HCV RNA) per 50 μl incubation; (as an alternative template, poly(A)/oligo(U) on either 20 μg/ml poly(A)460-600, and 10 μg/ml oligo (U)5-25 (or 0.8 μg of 10:1 mix of poly(A)/oligo(U) per 50 μl incubation can be employed). If the enzyme preparation is not >90-95 % pure include 50 μg/ml of actinomycin D. Incubations are for 15-120 min at 30° C. (or 22° C.). Note: stop incubations by adding 100 mM EDTA and then process for trichloroacetic acid (TCA) precipitation.

globin mRNA template = test: RNA synthesis assay using a globin mRNA template; type: biochemical; conditions: described reaction conditions
Method: (§1) Assay conditions for r-HCV-RDRP activity: The preferred conditions for assaying RDRP activity are described. The alternative conditions are operative, and designated as alternatives, in parentheses. Incubations were carried out 20 or 50 μl in final volumes that contain: 20-50 mM HEPES-pH 8.0 (alternative is 20 mM Tris-HCl;pH 7.5); 1.5-5 mM MnCl2; 100 mM ammonium acetate; 1-4 mM dithiothreitol (DDT), 500 μM each ATP, CTP, and GTP (alternative: 500 μM GTP and 250 μM each ATP and CTP); 10 μM UTP; 1-20 μCi of [α-^33P]UTP (alternative is to use [α-^32P]UTP or [^3H]UTP), 10-20 U of RNasin; and rHCV-RDRP protein. […]
(§2) Labeled nucleotides incorporated into RNA are precipitated by TCA. The precipitates are collected, washed and counted, e.g. in a scintillation counter to measure the quantity of RNA synthesized in the enzyme reaction. […] [^3H]poly(U) was quantitated by liquid scintillation spectrometry (LKB 1218 RackBeta). The synthesized RNA can also be analyzed by gel electrophoresis to determine the size of the synthesized RNA chains. For gel analysis the reaction mixture is inactivated with 100 μl of proteinase K buffer; digested with proteinase K, processed and the RNA products are analyzed by formaldehyde/agarose gel electrophoresis or 6% denaturing polyacrylamide-7 M urea gel electrophoresis.

[2] = isoelectric point of the enzyme; type: physicochemical
poly(A) template = test: poly(U) synthesis assay using a poly(A) template; type: biochemical; conditions: described reaction conditions
Method: as §1, §2

r-HCV-RDRP: Modified recombinant HCV RNA-dependent RNA polymerase (NS5B, type 1a) with N-terminal Met-Ala dipeptide, expressed in E. coli
Mg++ concentration giving maximal activity [1]: about 20 mM
activity in the absence of Mg++ ([1]; no Mg++): no detectable activity
primer dependence of RNA synthesis (globin mRNA template): > 90%
isoelectric point [2]: approximately 8.8
primer dependence of poly(U) synthesis (poly(A) template): > 90%
